The subject of this assay is platelet aggregation in dog PRP. In words: In-Vitro Platelet Aggregation in PRP (collagen-induced). In kind it is cell-based. To be noted: Canis lupus familiaris; for inhibition at 10 µM: Test Concentration 1 × 10^-5 (10 μM), dog PRP, collagen 33.3 μg/m final; for IC50: dog platelet-rich plasma, collagen-induced aggregation. The procedure: Compounds of the invention were evaluated by an in vitro assay to determine compound activity as an inhibitors of platelet aggregation.
In-Vitro Platelet Aggregation in PRP
Healthy male or female dogs were fasted for 8 hours prior to drawing blood; then 30 ml whole blood from jugular vein was collected using a butterfly needle and 30 ml plastic syringe with 3 ml of 0.129 M buffered sodium citrate (3.8%). The syringe was rotated carefully as blood was drawn to mix the citrate. The whole blood was transferred to a 50 ml Corning Conical sterile centrifuge tube. Platelet-rich plasma (PRP) was prepared by centrifugation at 975×g for 3.17 minutes at room temperature, allowing the centrifuge to coast to a stop without braking. The PRP was removed from the blood with a plastic pipette and placed in a plastic capped, 50 ml Corning conical sterile centrifuge tube which was held at room temperature. Platelet poor plasma (PPP) was prepared by centrifuging the remaining blood at 2000×g for 15 minutes at room temperature allowing the centrifuge to coast to a stop without braking. The PRP platelet count was typically a count of 2.5-4×10^8 platelets per ml. 400 μL of the PRP preparation and 50 μL of the compound to be tested or saline were preincubated for 2 minutes at 37° C. in a BioData aggregometer (BioData, Horsham, PA). 50 μL of Collagen (equine tendon, Chronolog, Hayertown, PA) [33.3 μg/m, final concentration] was added to the cuvettes and the aggregation was monitored for 4 minutes. All compounds are tested in duplicate. Inhibition of aggregation for each sample was determined using the formula: % of inhibition=100-% of control and % of control=(Tinh -Tbas)/(Tag -Tbas) ×100, where Tbas is % of light transmission in PRP (baseline), Tagg is % of light transmission in the aggregated PRP sample (saline control) and Tinh is % of light transmission in the sample containing the inhibitor.

The molecule `CSCCC(CC(=O)O)NC(=O)CCCCc1ccc(C(=N)N)cc1` (racemic) [(±)-3-[[5-[4-(aminoiminomethyl)phenyl]-1-oxopentyl]amino]-5-(methylthio) pentanoic acid] came in with an inhibition at 10 µM of 100% and an IC50 of 1300 nM.
The corresponding values for `COc1ccc(S(=O)(=O)CC(CC(=O)O)NC(=O)CCCCc2ccc(C(=N)N)cc2)cc1` (racemic) [(±)-3-[[5-[4-(aminoiminomethyl)phenyl]-1-oxopentyl]amino]-4-[(4-methoxyphenyl)sulfonyl]butanoic acid] are 100% and 130 nM.
The corresponding values for `CCOC(=O)CC(CC[S+]([O-])Cc1ccccc1)NC(=O)CCCCc1ccc(C(=N)N)cc1` (racemic) [(+)-ethyl 3-[[5-[4-aminoiminomethyl)phenyl]-1-oxopentyl]amino]-5-[(phenylmethyl)sulfinyl]pentanoate] are 100% and 420 nM.
On the same counts, the results for `N=C(N)c1ccc(CCCCC(=O)NC(CSc2ccccc2)CC(=O)O)cc1` (racemic) [(±)-3-[[5-[4-(aminoiminomethyl)phenyl]-1-oxopentyl]amino]-4-(phenylthio) butanoic acid] are 100% and 500 nM.
For `CCOC(=O)CC(CSc1ccccc1)NC(=O)CCCCc1ccc(C(=N)N)cc1` (racemic) [(±)-ethyl 3-[[5-[[4-(aminoiminomethyl)phenyl]-1-oxopentyl]amino]-4-(4-phenylthio) butanoate], the inhibition at 10 µM is 0%.
`N=C(N)c1ccc(CCCCC(=O)NC(CCS(=O)(=O)Cc2ccccc2)CC(=O)O)cc1` (racemic) [(±)-3-[[5-[4-(aminoiminomethyl)phenyl]-1-oxopentyl]amino]-5[(phenylmethyl)sulfonyl]pentanoic acid] came in with an inhibition at 10 µM of 100% and a concentration for half-maximal inhibition (IC50) of 220 nM.
The corresponding values for `N=C(N)c1ccc(CCCCC(=O)NC(CSc2ccc(F)cc2)CC(=O)O)cc1` (racemic) [(±)-3-[[5-[4-(aminoiminomethyl)phenyl]-1-oxopentyl]amino]-4-[(4-fluorophenyl)thio]butanoic acid] are 100% and 1800 nM.
Turning to `N=C(N)c1ccc(CCCCC(=O)NC(CC[S+]([O-])Cc2ccccc2)CC(=O)O)cc1` (racemic) [(±)-3-[[5-[4-(aminoiminomethyl)phenyl]-1-oxopentyl]amino]-5-[(phenylmethyl)sulfinyl]pentanoic acid], the inhibition at 10 µM stood at 100% and it took 100 nM to reach half-maximal inhibition (IC50).
In turn, `Cc1ccc([S+]([O-])CCNC(=O)CCCCc2ccc(C(=N)N)cc2)cc1` (centres unmarked) [4-(aminoiminomethyl)-N-[2-[(4-methylphenyl)sulfinyl]ethylbenzenepentanamide] yielded an inhibition at 10 µM of 0%.
`CCOC(=O)CC(CS(=O)(=O)c1ccccc1)NC(=O)CCCCc1ccc(C(=N)N)cc1` (racemic) [(±)-ethyl 3-[[5-[4-(aminoiminomethyl)phenyl]-1-oxopentyl]amino]-4-(phenylsulfonyl)butanoate] registered an inhibition at 10 µM of 3%.
`Cc1ccc(S(=O)(=O)CCNC(=O)CCCCc2ccc(C(=N)N)cc2)cc1` [4-(aminoiminomethyl)-N-[2-[(4-methylphenyl)sulfonyl]ethylbenzenepentanamide] gave an inhibition at 10 µM of 23%.
The molecule `N=C(N)c1ccc(CCCCC(=O)NC(CC(=O)O)C[S+]([O-])c2ccccc2)cc1` (racemic) [(±)-3-[[5-[4-(aminoiminomethyl)phenyl]-1-oxopentyl]amino]-4-[(phenylsulfinyl)butanoic acid] came in with an inhibition at 10 µM of 100% and an IC50 of 200 nM.
On to `Cc1ccc(S(=O)(=O)CC(CC(=O)O)NC(=O)CCCCc2ccc(C(=N)N)cc2)cc1` (racemic) [(+)-3-[[5-[4-(aminoiminomethyl)phenyl]-1-oxopentyl]amino]-4-[[(4-methylphenyl)sulfonyl]butanoic acid], for which 10 µM produced 100% inhibition.
On the same count and under the same terms, with `N=C(N)c1ccc(CCCCC(=O)NC(CC(=O)O)CS(=O)(=O)c2ccccn2)cc1` (racemic) [(±)-3-[[5-[4-(aminoiminomethyl)phenyl]-1-oxopentyl]amino]-4-(2-pyridinylsulfonyl)butanoic acid] the figure was 100%.
`CC(C)OC(=O)CC(CS(=O)(=O)c1ccccn1)NC(=O)CCCCc1ccc(C(=N)N)cc1` (stereo not drawn) [1-methylethyl 3S-[[5-[4-(aminoiminomethyl)phenyl]-1-oxopentyl]amino]-4-(2-pyridinylsulfonyl)butanoate] yielded an inhibition at 10 µM of 28%.
In the case of `CS(=O)(=O)CCC(CC(=O)O)NC(=O)CCCCc1ccc(C(=N)N)cc1` (racemic) [(±)-3-[[5-[4-(aminoiminomethyl)phenyl]-1-oxopentyl]amino]-5-(methylsulfonyl)pentanoic acid], testing at 10 µM gave an inhibition of 100% and the 50% inhibitory concentration (IC50) was 700 nM.
The corresponding values for `N=C(N)c1ccc(CCCCC(=O)NC(CC(=O)O)CS(=O)(=O)c2ccc(F)cc2)cc1` (racemic) [(±)-3-[[5-[4-(aminoiminomethyl)phenyl]-1-oxopentyl]amino]-4-[[(4-fluorophenyl)]sulfonyl]butanoic acid] are 100% and 120 nM.
For `CCOC(=O)CC(C[S+]([O-])c1ccccc1)NC(=O)CCCCc1ccc(C(=N)N)cc1` (racemic) [(±)-ethyl 3-[[5-[4-(aminoiminomethyl)phenyl]-1-oxopentyl]amino]-4-(4-phenylsulfinyl)butanoate], 10 µM produced 0% inhibition.
With `C[S+]([O-])CCC(CC(=O)O)NC(=O)CCCCc1ccc(C(=N)N)cc1` (racemic) [(±)-3-[[5-[4-(aminoiminomethyl)phenyl]-1-oxopentyl]amino]-5-(methylsulfinyl) pentanoic acid], the inhibition at 10 µM came out at 100% and the IC50 came out at 1500 nM.
On the same counts, the results for `N=C(N)c1ccc(CCCCC(=O)NC(CC(=O)O)CS(=O)(=O)c2ccccc2)cc1` (racemic) [(±)-3-[[5-[4-(aminoiminomethyl)phenyl]-1-oxopentyl]amino]-4-(phenylsulfonyl)butanoic acid] are 100% and 28 nM.

As a reminder, the inhibition is the share of the control response that was lost under treatment. Lower therefore signals a response near the control. As usually defined, the IC50 is the point on the concentration scale where inhibition reaches its midpoint.

Source of the values: patent publication US5543425A, “Method of inhibiting platelet aggregation using phenyl amidine thio derivatives” (G. D. Searle & Co., priority 1994, dated 1996).
